Test results as given in the supplement of paper PMC10307832.

How the values were obtained:
Assay in all cases: relative viability (nuclei count vs DMSO), 5 days (fraction); higher = more cells survive
TGX 221 + Crizotinib = compound: CC1=CN2C(=O)C=C(N=C2C(=C1)C(C)NC3=CC=CC=C3)N4CCOCC4 [TGX 221] + C[C@@H](Oc1cc(-c2cnn(C3CCNCC3)c2)cnc1N)c1c(Cl)ccc(F)c1Cl [Crizotinib] (partner 1 µM)
Outline: (§1)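 Lung cancer cell lines were pin-tool dosed in 1536-well plates on the day after seeding, with either a lone drug or a fixed anchor-drug dose plus five library-drug doses (not always all listed) in √10 steps. Nuclei were counted on 4× images after 5 days. Relative viability is the ratio of treated-well to vehicle-well nuclei counts, with each value a median of duplicate plates.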

[1] = compound: O=C(CCCCCCNC(=O)c1cnc(N(c2ccccc2)c2ccccc2)nc1)NO [Ricolinostat] + CC(C)C[C@H](NC(=O)[C@H](Cc1ccccc1)NC(=O)c1cnccn1)B(O)O [Bortezomib] (partner 0.002 µM)
Outline: as §1

[2] = compound: C1=CC=C(C(=C1)C2=CC=C(C=C2)C3=CSC4=C3C(=C(C(=O)N4)C#N)O)O + N=C(N)NC(=N)NCCc1ccccc1 [Phenformin] (partner 250 µM)
Outline: as §1

[3] = compound: C1=CC=C(C(=C1)C2=CC=C(C=C2)C3=CSC4=C3C(=C(C(=O)N4)C#N)O)O + CC(=O)c1c(C)c2cnc(Nc3ccc(N4CCNCC4)cn3)nc2n(C2CCCC2)c1=O [Palbociclib] (partner 0.5 µM)
Outline: as §1

Cell Line	relative viability (TGX 221 + Crizotinib; first compound 0.08 µM)	relative viability (TGX 221 + Crizotinib; first compound 0.253 µM)	relative viability (TGX 221 + Crizotinib; first compound 0.8 µM)	relative viability (TGX 221 + Crizotinib; first compound 2.53 µM)	relative viability (TGX 221 + Crizotinib; first compound 8 µM)	relative viability ([1]; first compound 0.253 µM)	relative viability ([1]; first compound 0.8 µM)	relative viability ([1]; first compound 2.53 µM)	relative viability ([2]; first compound 0.08 µM)	relative viability ([2]; first compound 0.253 µM)	relative viability ([2]; first compound 0.8 µM)	relative viability ([2]; first compound 2.53 µM)	relative viability ([2]; first compound 8 µM)	relative viability ([3]; first compound 0.08 µM)	relative viability ([3]; first compound 0.253 µM)	relative viability ([3]; first compound 0.8 µM)	relative viability ([3]; first compound 2.53 µM)	relative viability ([3]; first compound 8 µM)	relative viability ([1]; first compound 0.08 µM)
NCI-H650	0.729	0.655	0.624	0.689	0.534	0.788	0.544	0.23	0.474	0.531	0.448	0.465	0.44	0.305	0.357	0.329	0.273	0.344	
NCI-H460	0.754	0.811	1.05	0.896	0.64	1.01	1.11	1	0.165	0.557	0.427	0.561	0.107	0.15	0.149	0.15	0.101	0.158	0.895
HOP-62	0.893	0.873	0.992	0.953	0.88	0.595	0.799	0.532	0.57	0.854	0.565	0.679	0.359	0.545	0.536	0.497	0.532	0.382	0.501
NCI-H1975	0.985	0.878	0.996	0.935	0.803	0.357		0.233	0.379	0.425	0.403	0.393	0.394	0.464	0.483	0.511	0.539	0.4	0.406
NCI-H838	0.833	0.77	0.783	0.699	0.51	0.973	0.943	0.756	0.316	0.641	0.538	0.54	0.543	0.22	0.231	0.193	0.201	0.186	0.767
NCI-H2085	0.804	0.878	0.915	0.806	0.505	1.15	0.969	0.765	0.765	0.951	0.665	0.685	0.568	0.468	0.573	0.435	0.49	0.472	
NCI-H3122	0.278	0.227	0.281	0.294	0.356	1.08	0.987	1.09	0.352	0.364	0.432	0.387	0.37	0.203	0.214	0.186	0.21	0.231	0.914
HCC-15	0.821	0.783	0.852	0.772	0.811	0.987	0.983	0.925	0.407	0.516	0.496	0.494	0.387	0.786	0.867	0.766	0.897	0.617	0.897
LU99A	0.493	0.577	0.516	0.517	0.563	0.952	0.976	0.745	0.765	0.838	0.769	0.891	0.896	0.389	0.371	0.44	0.469	0.392	1.02
UMC-11	0.66	0.559	0.557	0.591	0.661	0.795	0.678	0.372	0.309	0.404	0.344	0.291	0.27	0.369	0.374	0.336	0.345	0.366	0.571
NCI-H2405	0.792	0.834	0.769	0.757	0.671	0.952	0.932	0.992	0.266	0.381	0.385	0.445	0.37	0.476		0.516	0.513	0.531	0.816
NCI-H1915	0.864	0.83	0.942	0.9	0.813	1.01	0.903	0.98	0.342	0.32		0.376	0.325	0.587	0.558	0.554	0.756	0.515	0.932
NCI-H2228	0.399	0.288	0.354	0.327	0.384	0.807	0.907	0.594	0.316	0.318	0.322	0.307	0.225	0.687	0.6	0.747	0.759	0.6	0.789
NCI-H322M	0.945	1.03	0.95	0.823	0.911	1.14	1.29	1.22	0.69	0.751	0.776	0.871	0.865	0.461	0.468	0.467	0.483	0.49	
LXF-289	0.813	0.832	0.808	0.774	0.82	0.931	0.993	0.874	0.491	0.538	0.553	0.507	0.485	0.612	0.595	0.681	0.629	0.675	0.951
PC-3 [JPC-3]	0.988	0.991	1.04	0.912	0.994	0.791	0.791	0.829	0.452	0.454	0.44	0.488	0.516	0.496	0.599	0.535	0.601	0.577	0.832
BEN	0.931	0.641	0.821	0.795	0.721	0.694	0.567	0.609	0.282	0.289	0.265	0.278	0.274	0.582	0.514	0.481	0.474	0.507	0.781
NCI-H1355	1.02	1.07	1.01	0.913	0.887	1.23	1.17	1.06	0.396	0.487	0.445	0.422	0.396	0.445	0.413	0.437	0.412	0.378	

Cell Line	relative viability (TGX 221 + Crizotinib; first compound 0.08 µM)	relative viability (TGX 221 + Crizotinib; first compound 0.253 µM)	relative viability (TGX 221 + Crizotinib; first compound 0.8 µM)	relative viability (TGX 221 + Crizotinib; first compound 2.53 µM)	relative viability (TGX 221 + Crizotinib; first compound 8 µM)	relative viability ([1]; first compound 0.253 µM)	relative viability ([1]; first compound 0.8 µM)	relative viability ([1]; first compound 2.53 µM)	relative viability ([2]; first compound 0.08 µM)	relative viability ([2]; first compound 0.253 µM)	relative viability ([2]; first compound 0.8 µM)	relative viability ([2]; first compound 2.53 µM)	relative viability ([2]; first compound 8 µM)	relative viability ([3]; first compound 0.08 µM)	relative viability ([3]; first compound 0.253 µM)	relative viability ([3]; first compound 0.8 µM)	relative viability ([3]; first compound 2.53 µM)	relative viability ([3]; first compound 8 µM)	relative viability ([1]; first compound 0.08 µM)
NCI-H441	0.732	0.82	0.657	0.62	0.697	0.341	0.342	0.25	0.706	1.01	1.03	0.927	0.633	0.208	0.21	0.184	0.275	0.21	0.596
EKVX	0.85	0.832	0.843	0.927	0.773	1.03	1.16	0.83	0.226	0.259	0.233	0.221	0.216	0.312	0.365	0.512	0.793	0.334	
HCC-44	0.83	0.794	0.875	0.758	0.733	0.887	0.904	0.663	0.166	0.164	0.138	0.21	0.208	1.08	1.05	0.995	0.979	0.964	0.904
A-427	0.958	0.924	0.879	0.776	0.824	0.998	0.933	0.736	0.234	0.313	0.315	0.328	0.31	0.551	0.535	0.504	0.553	0.543	0.89
NCI-H23	0.58	0.391	0.518	0.465	0.454	1.14	1.16	0.993	0.782	0.85	0.872	0.754	0.583	0.445	0.512	0.593	0.51	0.467	0.793
NCI-H2087	1.02	1.01	0.802	0.979	1.19	0.54	0.806	0.456	0.441	0.481	0.464	0.366	0.362	0.223	0.228	0.199	0.256	0.205	0.895
HCC-78	0.385	0.334		0.294	0.274	0.475	0.455	0.686	0.608	0.872	0.64	0.609	0.568	0.463	0.477	0.45	0.602	0.413	
NCI-H520	0.532	0.724	0.68	0.572	0.398	0.609	0.414	0.103	0.254	0.535	0.757	0.542	0.467	0.235	0.212	0.223	0.226	0.206	
NCI-H727	0.879	0.792	0.663	0.861	0.821	1.1	0.811	0.911	0.484	0.668	0.416	0.491	0.514	0.711	0.703	0.571	0.666	0.591	0.554
NCI-H1734	0.652	0.643	0.643	0.588	0.537	0.954	0.958	0.827	0.368	0.381	0.41	0.377	0.319	0.324	0.295	0.261	0.33	0.377	0.758
NCI-H1993	0.778	0.815	0.951	0.807	0.774	1	1.25	1.15	0.49	0.424	0.55	0.473	0.529	0.702	0.674	0.716	0.631	0.607	0.861
HCC-827	0.884	0.937	0.985	0.859	0.892	0.981	0.995	1.03	0.396	0.377	0.424	0.387	0.394	0.492	0.518	0.479	0.475	0.524	1.01
NCI-H1437	0.931	0.908	0.876	0.861	0.819	0.513	0.479	0.256	0.297	0.452	0.237	0.303	0.26	0.277	0.361	0.324	0.326	0.27	0.561
EPLC-272H	0.827	0.57	0.833		0.72	0.751	0.848	0.871	0.219	0.254	0.398	0.327	0.248	0.329		0.281	0.336	0.304	
NCI-H2126	0.992	1.04	0.963	0.975	0.966	1.07	1.1	1.02	0.504	0.575	0.471	0.527	0.621	0.377	0.347	0.337	0.333	0.394	0.95
NCI-H1666	1	0.933	0.988	0.935	0.957	0.97	0.724	0.579	0.578	0.739	0.547	0.532	0.484	0.63	0.669	0.637	0.641	1.02	0.598
RERF-LC-KJ	0.736	0.832	0.752	0.781	0.795	1	1.11	1.02	0.397	0.492	0.412	0.454	0.352	1.01	1.18	1.11	1.29	1.04	1.15
